From patent EP0773287A1, “Immortalised embryonic hyppocampal cells and their use” (BAYER AG, priority 1995, dated 1997)

Legend:
Format in all cases: cell-based, murine
[1] = tested on: v-myc-expressing lines and clones; assay: Induction of differentiation of immortalised cell lines and clones; conditions: 1mM
Method: For experiments in the presence of growth factors or other differentiation inducing agents, the primary cell cultures or the immortalised cell lines were cultured in the presence of one or a combination of the following: β-FGF, 1ng/ml, (Collaborative Research), EGF; 5 ng/ml or 10 ng/ml, (Collaborative Research), NGF (10 ng/ml, Collaborative Reasearch), dibutyryl cyclic adenosine monophosphate (dbcAMP, 1mM, Sigma, Heidelberg), retinoic acid (5 µM; Sigma), IL-7 (50 U/ml), TGFα (5ng/ml).
To induce differentiation in vitro several combinations of the following factors were used: retinoic acid (RA, 10 µM), NGF, β-FGF, EGF, IL-7, TGFα, dbcAMP (1mM). In addition the effect of co-culture with cortical glial cells originating from postnatal day 0 to 1 and granule neurons originating from postnatal day 6 mice was investigated.

HC e/n XV.B cells = assay: Ca2+-imaging (Fura-2) of intracellular calcium after application of agonists
Method: (§1) Fluorescent Probe: Dynamic changes of intracellular calcium concentration were measured using the Fura-2 fluorescent probe (Roe et al. 1990, Cell Calcium 11:63-73). This fluorescent dye was chosen because of its selectivity, high quantum yield and extinction co-efficient. Fura-2 permeates the living cell as a acetoxymethylester and becomes trapped within the cell after hydrolysis by intracellular esterases. The calcium-sensitive free acid of Fura-2 is able to bind to calcium ions inside the cell. Fura-2 has an excitation maximum at 380 nm and the Fura2/calcium complex peaks at 340 nm. A change in intracellular calcium concentration was calculated by recording fluorescent video images at wavelengths of 340nm and 380nm excitation and 510nm emission and by dividing the grey values of the digitized video images of 380nm from 340nm.
(§2) Loading cells with Fura-2: A stock solution with 2mM Fura-2-acetoxymethylester in dimethylsulfoxide (DMSO) was diluted to 5-10 µM with serum free Minimal Essential Medium (MEM, Gibco) containing 1.5% bovine serum albumin and 5 mM calcium chloride. The cells were incubated in a Falcon 96 well plate for 45-60 minutes at 37°C. Subsequently the cells were washed twice in N-(2-Hydroxyethyl)piperazine-N'-(2-ethanesulfonic acid) (HEPES, 5mM) buffered Tyrode solution (HEPES buffered salt solution containing 130 mM NaCl, 5 mM KCl, 2 mM CaCl2, 1 mM MgCl2, 5mM NaHCO3, 11 mM Glucose).
(§3) Imaging procedure: 100 µl of Tyrode buffer was added to the plate wells and the cells were sequencially exposed to light at 340 nm and 380 nm under a fluorescent microscope (Nikon Diaphot). The exposition time was 100 ms. A series of video images at 3 second intervals was acquired and stored as digitised pictures in the image boards of an image analysis computer (Leica, Quantimet 570). After the acquisition of 8 images the test substances were applied. The grey levels of the cells, which correspond to the fluorescence intensity, were measured in the recorded video images. The ratio was determined by dividing the measured grey levels of the "380 nm images" by the grey levels of the "340 nm images" either from averaged images or from individual cells. For averaged results, the grey levels were measured over the whole images.
(§4) The cells were loaded with Fura 2/AM between day 3 and 7 in culture. A number of agonists were tested for their ability to activate specific receptors on the cell surface which lead to a rise in intracellular calcium. The rise in calcium concentration in the cytoplasm can occur after activation of specific calcium channels in the cell membrane, after activation of neurotransmitter receptors directly coupled to ion channels that are permeable to calcium ions (i.e. NMDA or AMPA type glutamate receptors), or by activation of receptors, which propagate the signal through the activation of specific G-proteins, which regulate the activity of different enzymes in the interior of the cell (Connor, Cell Calcium 14 (1993), 185-200; Crouch and Hendry, Medical Res. Rev. 13 (1993), 105-123). The activation of phospholipase C generates the second messengers diacylglycerol and inositoltriphosphate from phospholipids in the cell membrane. The binding of inositoltriphosphate to receptors localised on internal vesicles which store calcium ions leads to a transient rise in the concentration of calcium ions in the cytoplasm (Berridge, M.J. 1993, Nature 361: 315-325).

HNMMCV11.2.0 = assay: as above
Method: as §1, §2, §3, §4

HNMMCV13.1.E [2] = assay: as above
Method: as §1, §2, §3, §4

HNMMCV13.1.F = assay: as above
Method: as §1, §2, §3, §4

HNMMCV14.1.A [3] = assay: as above
Method: as §1, §2, §3, §4

HC e/n XVB cells = assay: Whole-cell patch-clamp recording of ligand-activated currents; conditions: for ligand-activated currents (electrophysiological recordings): membrane potential clamped to -70mV
Method: (§5) Electrophysiological setup: Membrane currents were measured with the patchclamp technique in the whole-cell recording configuration (Hamill et al. 1981, Pfluegers Arch. 391:85-100). Current signals were amplified with conventional electronics (EPC-9 amplifier, HEKA Elektronik GmbH, Lambrecht, Germany), filtered at 10kHz, and sampled at 5 kHz by an interface connected to an IBM AT-compatible computer system, which also served as a stimulus generator.
(§6) Solutions and electrodes: The standard bathing solution contained (in mM): Nacl 150, KCL 5, MgCl2 1.8, HEPES 5, and glucose 10. In some experiments an equimolar amount of NaCl was replaced by 5mM BaCl2. Recording pipettes had resistances about 5MΩ (Hilgenberg, Malsfeld, Germany). The pipettes contained (in mM): KCL 140, CaCl2 0.5, EGTA 5, MgCl2 2, and HEPES 10. The pH was adjusted to 7.4. In some experiments the pipette solution was designed to minimize the contribution of voltage-activated currents. In this case, investigating the ligand-activated currents, the pipette solution contained (in mM): CsCl 140, EGTA 10, and HEPES 10.
(§7) Ligands were dissolved in the extracellular saline solution and applied via an U-tube application system. To record ligand-induced currents, the membrane potential was clamped to -70mV. For measurements of voltage-activated currents, cells were held at -70mV and every second the membrane was stepped through a 50 msec. de- or hyperpolarising test pulse to a potential between -170 and +20 mV.

HNMMCV14.1.A [4] = assay: as above
Method: as §5, §6, §7

[5] = tested on: metabotropic glutamate receptor(s) (mGluR) expressed by HNMMCV14.1A cells; assay: Phosphoinositide hydrolysis: accumulation of 3H-inositol phosphates; conditions: HNMMCV14.1A cells; agonist 1 h, LiCl 10 mM; read-out: EC50 inositolphosphate accumulation
Method: Phosphoinositide hydrolysis was determined by measuring the accumulation of ^3H-inositol phosphates. The cells were plated in 48-well plates (Costar) at a density of 10000 cells per well and incubated for 4-5 days at 37°C, 7% CO2. Then the cells were labeled by incubation with 4 µCi of myo-2-^3H-inositol per ml medium (specific activity: […]: Amersham). After 24 h LiCl (10 mM final concentration) was added to the cells for 1 h. Agonists were then added at the concentrations indicated. The incubation was stopped after 1 h by replacing the medium with 200 µl ice-cold methanol. 400 µl of destilled water was added and the sample was directly applied to AG-1X8 ion exchange columns (AG-1X8 resin: BioRad). Free inositol and glycerophosphoryl-inositol were washed away with 16 ml destilled water followed by 10 ml 5 mM disodium-tetraborate, 60 mM sodium formate. Total ^3H-inositol phosphates (IP1, IP2, IP3) were eluted with 7 ml of 100 mM formic acid, 1 M ammonium formate. Radioactivity of the eluted ^3H-inositol phosphates was determined by liquid scintillation counting after addition of 13 ml liquid scintillation cocktail (Ultima Gold: Canberra Packard). Measurements were performed in triplicates for each experimental point. Untreated controls were set as 100% and the other values calculated in relation to this.
The columns were prepared as follows: 1 ml pipet tips were filled with one glass bead (Roth) per tip before adding 500 µl AG-1X8 resin. The resin was compressed with air and 270 µl seasand was applied. Until use they were stored at 4°C.

HNMMCV13.1.E [6] = assay: Whole-cell patch-clamp recording of ligand-activated currents; conditions: 13.1.E; membrane potential clamped to -70mV
Method: as §5, §6, §7

SMILES: CCCC(=O)Nc1ncnc2c1ncn2[C@@H]1O[C@@H]2COP(=O)(O)O[C@H]2[C@H]1OC(=O)CCC [dbcAMP, dibutyryl cyclic adenosine monophosphate]
- expression of MAP-2 ([1]; cell line HNMMCV11.2.): induction of the expression of MAP-2
- differentiation of the cells (morphology, markers vimentin and nestin) ([1]; v-myc-expressing lines and clones): partial differentiation

SMILES: C=C(C)[C@H]1CN[C@H](C(=O)O)[C@H]1CC(=O)O [Kainate, kainic acid]
- rise in intracellular calcium concentration (result in words) (HC e/n XV.B cells): reproducible calcium signal
- rise in intracellular calcium concentration (result in words) (HNMMCV11.2.0): did not result in a transient rise
- transient calcium currents after the application of agonists and antagonists (Calcium - Imaging) (HNMMCV11.2.0): -
- rise in intracellular calcium concentration (result in words) (HNMMCV13.1.E [2]): did not result in a transient rise
- transient calcium currents after the application of agonists and antagonists (Calcium - Imaging) (HNMMCV13.1.E [2]): -
- rise in intracellular calcium concentration (result in words) (HNMMCV13.1.F): did not result in a transient rise
- transient calcium currents after the application of agonists and antagonists (Calcium - Imaging) (HNMMCV13.1.F): -
- rise in intracellular calcium concentration (result in words) (HNMMCV14.1.A [3]): did not result in a transient rise
- transient calcium currents after the application of agonists and antagonists (Calcium - Imaging) (HNMMCV14.1.A [3]): -
- ligand-induced inward currents (result in words) (HC e/n XVB cells): evoked responses
- ligand-activated currents (electrophysiological recordings) (HNMMCV14.1.A [4]): + / -

SMILES: N[C@@H](CCC(=O)O)C(=O)O [Glutamate, L-glutamate]
- EC50 [5]: 50 µM
- ligand-activated currents (electrophysiological recordings) (HC e/n XVB cells; XV. B/ - EGF): ++ (++: 30-70% positive cells)
- ligand-activated currents (electrophysiological recordings) (HC e/n XVB cells; XV. B): -
- ligand-activated currents (electrophysiological recordings) (HNMMCV13.1.E [6]): + (+: 10-30% positive cells)
